Experimental data taken from the NIST ThermoML archive (doi:10.1016/j.jct.2006.03.008).
Where “and” joins values, the source holds several entries; their conditions need not be identical. Equal values may be shown once. ± gives the expanded uncertainty stated by the source.

Conditions: for vapor or sublimation pressure: Closed cell (Static) method; for mass density: Fluid (supercritical or subcritical phases), Bellows volumetry

With CC(C)C [2-methylpropane] the “vapor or sublimation pressure” value (310 K, Liquid) was 489.5 ± 1.8 kPa [middle of 6 runs], the mass density (405 K, 3464.7 kPa) was 185 ± 15 kg/m3 and the mass density (405 K, 3467.3 kPa) was 199.9 ± 15 kg/m3 and 200 ± 15 kg/m3. The mass density (405 K, 3468 kPa) was 200 ± 15 kg/m3, the mass density (405 K, 3468.4 kPa) was 200 ± 15 kg/m3 and the mass density (405 K, 3469.9 kPa) was 264.9 ± 51 kg/m3. The “vapor or sublimation pressure” value (405 K, Liquid) was 3468.8 ± 5.4 kPa [middle of 6 runs], the mass density (406 K, 3523.7 kPa) was 184.9 ± 60 kg/m3 and the mass density (406 K, 3525.7 kPa) was 199.9 ± 60 kg/m3. For the same compound, the mass density (406 K, 3528.1 kPa) was 264.9 ± 60 kg/m3, the “vapor or sublimation pressure” value (406 K, Liquid) was 3527 ± 5.5 kPa [middle of 6 runs] and the mass density (407 K, 3582.1 kPa) was 185.4 ± 60 kg/m3. The mass density (407 K, 3585 kPa) was 200.3 ± 60 kg/m3, the “vapor or sublimation pressure” value (407 K, Liquid) was 3585.5 ± 5.6 kPa [middle of 7 runs] and the mass density (407.5 K, 3613.8 kPa) was 185 ± 13 kg/m3. For the same compound, the mass density (407.5 K, 3617.5 kPa) was 199.9 ± 13 kg/m3, the mass density (407.5 K, 3617.7 kPa) was 200.4 ± 13 kg/m3 and the mass density (407.5 K, 3620.6 kPa) was 265 ± 38 kg/m3. The “vapor or sublimation pressure” value (407.5 K, Liquid) was 3619 ± 5.6 kPa [middle of 6 runs], the mass density (407.89 K, 3632.3 kPa) was 184.9 ± 9.4 kg/m3 and the mass density (407.89 K, 3637.6 kPa) was 200.1 ± 20 kg/m3. It also gave a mass density (407.89 K, 3640.5 kPa) of 240 ± 21 kg/m3, a mass density (407.89 K, 3640.6 kPa) of 250 ± 22 kg/m3 and a mass density (407.89 K, 3640.8 kPa) of 250.2 ± 22 kg/m3. It also gave a mass density (407.89 K, 3640.9 kPa) of 241.4 ± 30 kg/m3, a mass density (407.89 K, 3641.3 kPa) of 250.5 ± 31 kg/m3 and a mass density (407.89 K, 3644.5 kPa) of 263.7 ± 21 kg/m3. The mass density (407.89 K, 3644.6 kPa) was 264.9 ± 16 kg/m3, the mass density (408 K, 3635.8 kPa) was 184.1 ± 6.8 kg/m3 and the mass density (408 K, 3638.1 kPa) was 184.9 ± 9 kg/m3. The mass density (408 K, 3643.7 kPa) was 200 ± 22 kg/m3, the mass density (408 K, 3644.2 kPa) was 200.4 ± 20 kg/m3 and the mass density (408 K, 3645.6 kPa) was 220 ± 19 kg/m3. The mass density (408 K, 3646.4 kPa) was 227.5 ± 19 kg/m3, the mass density (408 K, 3646.6 kPa) was 240 ± 19 kg/m3 and the mass density (408 K, 3646.8 kPa) was 220.1 ± 19 kg/m3. The mass density (408 K, 3647.4 kPa) was 249.9 ± 24 kg/m3, the mass density (408 K, 3652.4 kPa) was 265.5 ± 11 kg/m3 and the mass density (409 K, 3692.1 kPa) was 184.7 ± 5.5 kg/m3. The mass density (409 K, 3692.8 kPa) was 184.9 ± 5.8 kg/m3, the mass density (409 K, 3702.2 kPa) was 200 ± 7.4 kg/m3 and the mass density (409 K, 3702.8 kPa) was 200.4 ± 7.3 kg/m3. For the same compound, the mass density (409 K, 3708.3 kPa) was 219.8 ± 12 kg/m3, the mass density (409 K, 3708.5 kPa) was 219.9 ± 12 kg/m3 and the mass density (409 K, 3708.9 kPa) was 220.4 ± 12 kg/m3. It also gave a mass density (409 K, 3709.7 kPa) of 224.2 ± 12 kg/m3, a mass density (409 K, 3710.5 kPa) of 227.4 ± 11 kg/m3 and a mass density (409 K, 3713.6 kPa) of 239.9 ± 11 kg/m3. For the same compound, the mass density (409 K, 3717.7 kPa) was 250 ± 5.5 kg/m3, the mass density (409 K, 3718.4 kPa) was 250.4 ± 5.5 kg/m3 and the mass density (409 K, 3729 kPa) was 265 ± 4.9 kg/m3. For the same compound, the mass density (410 K, 3745.3 kPa) was 185 ± 4.5 kg/m3, the mass density (410 K, 3757.5 kPa) was 200 ± 4.7 kg/m3 and the mass density (410 K, 3758.2 kPa) was 200 ± 4.7 kg/m3. The mass density (410 K, 3764.3 kPa) was 210 ± 6.1 kg/m3, the mass density (410 K, 3769.4 kPa) was 220 ± 6.8 kg/m3 and the mass density (410 K, 3772.2 kPa) was 227.4 ± 6.8 kg/m3. It also gave a mass density (410 K, 3772.5 kPa) of 228.1 ± 6.8 kg/m3, a mass density (410 K, 3779.4 kPa) of 240 ± 5.7 kg/m3 and a mass density (410 K, 3785.9 kPa) of 250 ± 3.9 kg/m3. For the same compound, the mass density (410 K, 3786.3 kPa) was 250.4 ± 3.9 kg/m3, the mass density (410 K, 3802.3 kPa) was 265 ± 3.5 kg/m3 and the mass density (410 K, 3802.8 kPa) was 265.2 ± 3.4 kg/m3. It also gave a Critical pressure (Liquid, Direct measurement) of 3639 ± 4.8 kPa and a Critical temperature (Liquid, Visual observation in an unstirred cell) of 407.88 ± 0.062 K.
